Test results: patent US10519145B2, “Pyrazole-oxazolidinone compound for anti-hepatitis B virus” (Shanghai Zhimeng Biopharma Co., Ltd., priority 2016, dated 2019)

Legend:
HBV (HepG2.2.15 cells) = experiment: Anti-HBV activity experiment in vitro (HepG2.2.15, HBV DNA in supernatant, qPCR); type: cell-based; details: Hepatitis B virus, HBV DNA in supernatant by qPCR, eighth day
Experimental: Compound Dilution: initial concentrations of all compounds used in the anti-HBV activity experiments in vitro were 1 μM, 3-fold diluted into 8 concentrations; initial concentrations of all compounds used in the cytotoxicity assay were 100 μM, 3-fold diluted into 8 concentrations; and the mother liquor of the compound was diluted with DMSO.
(§1) Anti-HBV Activity Experiment In Vitro: HepG2.2.15 cells (4×10^4 cells/well) were seeded in 96-well plates and cultured overnight at 37° C. in 5% CO2. The next day, fresh cultures containing compounds in different concentrations were added into the culture wells. On the fifth day, the old culture medium in the culture wells was aspirated and removed. Fresh medium containing compounds in different concentrations was added. On the eighth day, supernatants in the culture wells were collected and used to extract HBV DNA in the supernatant. qPCR assay was used to detect HBV DNA content in the HepG2.2.15 supernatant.
The data analysis and the percentage of inhibition calculation: the percentage of inhibition was calculated by using the following formula: Inhibition %=[(HBV amount in DMSO control−HBV amount in sample)/HBV amount in DMSO control]×100%.

[1] = Pharmacokinetic determination in rats (IV and PO); type: in vivo, Sprague Dawley rats; details: rat
Experimental: The pharmacokinetics of the compound of Example 3 (racemate) in the present application was determined in rats.
Test compounds were intravenously (IV) and orally (P0) administered to Sprague Dawley rats once. Blood samples were collected at different time points. LC/MS/MS was used to determine the concentration of the test compounds in the rat plasma after the administration of the test compounds and calculate the relating parameters.
Time points for animal blood collection were: before administration, 5 min, 15 min, 30 min, 1 h, 2 h, 4 h, 6 h, 8 h and 24 h after administration. Approximately 0.3 mL of blood via jugular or other appropriate venipuncture was collected from each animal and anticoagulated with heparin sodium. Blood samples were collected and placed on ice, and plasma was centrifuged (centrifugation: 8000 rpm, 6 min, 4° C.). Plasma samples were stored in a −70° C. freezer before analysis.
50 μL of sample was taken into a 1.5 mL centrifuge tube, and 250 μL of internal standard solution was added. After subjected to vortex for 60 seconds and centrifugation for 5 min (14,000 revolutions/min), 200 μL of supernatant was taken into a 96-well sample plate for analysis.
Mass spectrometer: API 4000, Applied Biosystems, Inc., Electrospray Ionization Source (ESI), Tandem quadrupole mass analyzer.
Mass spectrometry conditions: ion source: electrospray ionization source (ESI); auxiliary gas (Gas1): 60 psi; auxiliary gas (Gas2): 60 psi; curtain gas (CUR): 14 psi; collision gas (CAD): 6; ion source voltage (IS): 5500V; ion source temperature (TEM): 550° C.
Liquid phase conditions: chromatography Column: Thermo AQUASIL C18 (50×2.1 mm); chromatographic mobile phase: A is 0.1% formic acid in water, solution B is 0.1% formic acid in methanol (A:B=80%: 20%-10%: 90%); flow rate: 500 μL/min; injection volume: 1 μL.
According to the drug blood concentration data, the pharmacokinetic parameters of the test compound were calculated using the pharmacokinetic calculation software WinNonlin 5.2 non-compartmental model.

[2] = system: HBV genotype AB033554 (B); experiment: Anti-different genotypic HBV strain activity assay in vitro, transient transfection; type: cell-based; details: Hepatitis B virus, HepG2
Experimental: as §1, with “Compounds were tested for in vitro activity against different genotypic HBV strains using a transient transfection cell model. HepG2 cells” for “Anti-HBV Activity Experiment In Vitro: HepG2.2.15 cells”, “cells/well) that had been transfected with different HBV genotypic strains” for “cells/well)”, “seeded into” for “seeded in”, “removed. The fresh” for “removed. Fresh”, “to detected” for “to detect”, “the HepG2” for “the HepG2.2.15”

[3] = system: HBV genotype AB246345 (C); experiment: as above; type: cell-based; details: Hepatitis B virus, HepG2
Experimental: as §1, with “Compounds were tested for in vitro activity against different genotypic HBV strains using a transient transfection cell model. HepG2 cells” for “Anti-HBV Activity Experiment In Vitro: HepG2.2.15 cells”, “cells/well) that had been transfected with different HBV genotypic strains” for “cells/well)”, “seeded into” for “seeded in”, “removed. The fresh” for “removed. Fresh”, “to detected” for “to detect”, “the HepG2” for “the HepG2.2.15”

[4] = system: HBV genotype AB246346 (C); experiment: as above; type: cell-based; details: Hepatitis B virus, HepG2
Experimental: as §1, with “Compounds were tested for in vitro activity against different genotypic HBV strains using a transient transfection cell model. HepG2 cells” for “Anti-HBV Activity Experiment In Vitro: HepG2.2.15 cells”, “cells/well) that had been transfected with different HBV genotypic strains” for “cells/well)”, “seeded into” for “seeded in”, “removed. The fresh” for “removed. Fresh”, “to detected” for “to detect”, “the HepG2” for “the HepG2.2.15”

[5] = system: HBV genotype AP007263 (A); experiment: as above; type: cell-based; details: Hepatitis B virus, HepG2
Experimental: as §1, with “Compounds were tested for in vitro activity against different genotypic HBV strains using a transient transfection cell model. HepG2 cells” for “Anti-HBV Activity Experiment In Vitro: HepG2.2.15 cells”, “cells/well) that had been transfected with different HBV genotypic strains” for “cells/well)”, “seeded into” for “seeded in”, “removed. The fresh” for “removed. Fresh”, “to detected” for “to detect”, “the HepG2” for “the HepG2.2.15”

[6] = system: HBV genotype HE974371 (A2); experiment: as above; type: cell-based; details: Hepatitis B virus, HepG2
Experimental: as §1, with “Compounds were tested for in vitro activity against different genotypic HBV strains using a transient transfection cell model. HepG2 cells” for “Anti-HBV Activity Experiment In Vitro: HepG2.2.15 cells”, “cells/well) that had been transfected with different HBV genotypic strains” for “cells/well)”, “seeded into” for “seeded in”, “removed. The fresh” for “removed. Fresh”, “to detected” for “to detect”, “the HepG2” for “the HepG2.2.15”

[7] = system: HBV genotype JN406371 (B); experiment: as above; type: cell-based; details: Hepatitis B virus, HepG2
Experimental: as §1, with “Compounds were tested for in vitro activity against different genotypic HBV strains using a transient transfection cell model. HepG2 cells” for “Anti-HBV Activity Experiment In Vitro: HepG2.2.15 cells”, “cells/well) that had been transfected with different HBV genotypic strains” for “cells/well)”, “seeded into” for “seeded in”, “removed. The fresh” for “removed. Fresh”, “to detected” for “to detect”, “the HepG2” for “the HepG2.2.15”

HBV genotype U95551 (D) = experiment: as above; type: cell-based; details: Hepatitis B virus, HepG2
Experimental: as §1, with “Compounds were tested for in vitro activity against different genotypic HBV strains using a transient transfection cell model. HepG2 cells” for “Anti-HBV Activity Experiment In Vitro: HepG2.2.15 cells”, “cells/well) that had been transfected with different HBV genotypic strains” for “cells/well)”, “seeded into” for “seeded in”, “removed. The fresh” for “removed. Fresh”, “to detected” for “to detect”, “the HepG2” for “the HepG2.2.15”

HBV strain U95551 (WT) = experiment: In vitro anti-nucleoside drug-resistant HBV strain activity experiment, transient transfection; type: cell-based; details: Hepatitis B virus, transfected HepG2 cells
Experimental: as §1, with “Compounds were tested for in vitro activity against nucleoside drug-resistant HBV strains using a transient transfection cell model. HepG2 cells” for “Anti-HBV Activity Experiment In Vitro: HepG2.2.15 cells”, “cells/well) that had been transfected with nucleoside drug-resistant HBV strains” for “cells/well)”, “seeded into” for “seeded in”, “removed. The fresh” for “removed. Fresh”, “the HepG2” for “the HepG2.2.15”

[8] = system: nucleoside drug-resistant HBV strain L180M + M204V; experiment: as above; type: cell-based; details: Hepatitis B virus, HepG2, 192 h
Experimental: as §1, with “Compounds were tested for in vitro activity against nucleoside drug-resistant HBV strains using a transient transfection cell model. HepG2 cells” for “Anti-HBV Activity Experiment In Vitro: HepG2.2.15 cells”, “cells/well) that had been transfected with nucleoside drug-resistant HBV strains” for “cells/well)”, “seeded into” for “seeded in”, “removed. The fresh” for “removed. Fresh”, “the HepG2” for “the HepG2.2.15”

[9] = system: nucleoside drug-resistant HBV strain M204I + S202G + M250V; experiment: as above; type: cell-based; details: Hepatitis B virus, HepG2, 192 h
Experimental: as §1, with “Compounds were tested for in vitro activity against nucleoside drug-resistant HBV strains using a transient transfection cell model. HepG2 cells” for “Anti-HBV Activity Experiment In Vitro: HepG2.2.15 cells”, “cells/well) that had been transfected with nucleoside drug-resistant HBV strains” for “cells/well)”, “seeded into” for “seeded in”, “removed. The fresh” for “removed. Fresh”, “the HepG2” for “the HepG2.2.15”

[10] = system: nucleoside drug-resistant HBV strain M204I + S202G; experiment: as above; type: cell-based; details: Hepatitis B virus, HepG2, 192 h
Experimental: as §1, with “Compounds were tested for in vitro activity against nucleoside drug-resistant HBV strains using a transient transfection cell model. HepG2 cells” for “Anti-HBV Activity Experiment In Vitro: HepG2.2.15 cells”, “cells/well) that had been transfected with nucleoside drug-resistant HBV strains” for “cells/well)”, “seeded into” for “seeded in”, “removed. The fresh” for “removed. Fresh”, “the HepG2” for “the HepG2.2.15”

[11] = system: nucleoside drug-resistant HBV strain M204I + V173L; experiment: as above; type: cell-based; details: Hepatitis B virus, HepG2, 192 h
Experimental: as §1, with “Compounds were tested for in vitro activity against nucleoside drug-resistant HBV strains using a transient transfection cell model. HepG2 cells” for “Anti-HBV Activity Experiment In Vitro: HepG2.2.15 cells”, “cells/well) that had been transfected with nucleoside drug-resistant HBV strains” for “cells/well)”, “seeded into” for “seeded in”, “removed. The fresh” for “removed. Fresh”, “the HepG2” for “the HepG2.2.15”

[12] = system: nucleoside drug-resistant HBV strain M204I; experiment: as above; type: cell-based; details: Hepatitis B virus, HepG2
Experimental: as §1, with “Compounds were tested for in vitro activity against nucleoside drug-resistant HBV strains using a transient transfection cell model. HepG2 cells” for “Anti-HBV Activity Experiment In Vitro: HepG2.2.15 cells”, “cells/well) that had been transfected with nucleoside drug-resistant HBV strains” for “cells/well)”, “seeded into” for “seeded in”, “removed. The fresh” for “removed. Fresh”, “the HepG2” for “the HepG2.2.15”

[13] = Sprague Dawley, IV, single administration, plasma
[14] = Sprague Dawley, PO, single administration, plasma

O=C1COC(c2cn(-c3ccc(Br)cc3)nc2-c2ccc(F)cc2)N1CCc1ccc2[nH]c(=O)[nH]c2c1 (racemic) [example 3 racemate, 3-(2-(2-oxo-2,3-dihydro-1H-benzo[d]imidazol-5-yl)ethyl)-2-(1-(4-bromophenyl)-3-(4-fluorophenyl)-1H-pyrazol-4-yl)-oxazolidin-4-one]
EC50 (HBV (HepG2.2.15 cells)): 31.2 nM
Vd ([1]; Sprague Dawley, plasma, IV, single administration, read-out: Vz): 6.22 L/kg
AUC(0-inf) [1, 13]: 3880 ng·h/mL
Cmax [1, 13]: 5460 ng/mL
Tmax [1, 13]: 0.083 h
half-life [1, 13]: 3.52 h
AUC(0-inf) [1, 14]: 773 ng·h/mL
Cmax [1, 14]: 201 ng/mL
Tmax [1, 14]: 0.83 h
half-life [1, 14]: 2.07 h
CLz ([1]; IV, single administration): 21.8 mL/min/kg
F ([1]; PO vs IV): 18.55%
Vz ([1]; PO, single administration): 3.58 L/kg

O=C1Cc2cc(CCN3C(=O)COC3c3cn(-c4ccc(Br)cc4)nc3-c3ccc(F)cc3)ccc2N1 (racemic) [example 13 racemate]
EC50 (HBV (HepG2.2.15 cells)): 22 nM
EC50 [2]: 47 nM
EC50 [3]: 30.9 nM
EC50 [4]: 59.2 nM
EC50 [5]: 168 nM
EC50 [6]: 32.5 nM
EC50 [7]: 36 nM
EC50 (HBV genotype U95551 (D)): 86.8 nM
EC50 (HBV strain U95551 (WT)): 82 nM
EC50 [8]: 102 nM
EC50 [9]: 87.4 nM
EC50 [10]: 74.7 nM
EC50 [11]: 72.2 nM
EC50 [12]: 75.8 nM
